Measured values from article PMC3240959 (2011).

Molecular target: T1, PfTrx-2 (Plasmodium falciparum thioredoxin-2, MAL13P1.225) (Plasmodium falciparum, UniProt Q8IDP4)
T1 sequence (Q8IDP4 28-157): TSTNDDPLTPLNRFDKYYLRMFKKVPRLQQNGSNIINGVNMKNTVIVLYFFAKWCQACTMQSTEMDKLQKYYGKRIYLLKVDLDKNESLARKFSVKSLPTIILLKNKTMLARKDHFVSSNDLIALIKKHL
Experiment: insulin reduction
Type: biochemical

O=C(O)CC([S][Au])C(=O)O (racemic) [ATM, Aurothiomalate] gave an IC50 of ~20 µM.
